# “Also recorded” adds a separate entry of the source. Ends that are not written are not given here. * marks the point of attachment. Biotin = O=C1N[C@H]2[C@H](CS[C@H]2CCCCC(=O)*)N1
# System: anti-H2b CTL effector population
# Assay: Binding of biotinylated peptide to CTL effectors
# Design: species or system mouse
# Details: cells activated (IL-2 receptor expression)
row,Substance,binding to activated CTL effector cells
1,Bt-SGSG-NLRIALRYYW; positions 77–85 terminating with tryptophan (Biotin-SGSGNLRIALRYYW-OH) [peptide 15],binding of peptide 15 was observed

# System: Jurkat cell line E6-1
# Assay: Binding of biotinylated peptide to cell lines
# Details: among human and murine cell lines
# Text: (§1) In the next study, human peripheral blood lymphocytes were isolated and stained with the biotinylated peptide panel. […] Using human and murine cell lines, a spectrum of binding affinity was observed.
row,Substance,degree of binding to cell line
1,Bt-SGSG-NLRIALRYYW; positions 77–85 terminating with tryptophan (Biotin-SGSGNLRIALRYYW-OH) [peptide 15],highest degree of binding

# System: CTL activity (CBA to B6 effector cells, EL4 target cells)
# Assay: Cytotoxic T cell activity (51Cr release)
# Format: cell-based, mouse
# Details: H2k>H2b, H2d>H2b, H2k>H2d strain combinations
# Experimental: Cytotoxic T Cell Activity. To assay the effect of peptides on cytotoxic T cell activity, CBA to B6 effector cells were prepared following a 6-day culture of 4×10^6 CBA spleen cells with 5×10^6 mitomycin-treated B6 spleen cells in wells of a 24 well plate (Nuncion Delta, Nunc, Denmark) in RPMI-1640 with 10% FBS. Effector cells were then harvested and washed. EL4 (H-2^b), a mouse lymphoma induced in C57BL/6N was used as target cells. Cultured EL4 cells were maintained and sub-cultured once every three days […] Effector (E) and target (T) cells were then added into V-shaped tissue culture plates (Nunc, Denmark) at E:T ratios of 3:1, 10:1, 30:1, 100:1, respectively. Peptides were diluted to the working concentrations with R-10 medium and added at the beginning of the 4-hour incubation period. For the determination of maximal release, 1% Triton X-100 was added to separate wells. Plates were then centrifuged for 2 min to increase cellular contact before the 4-hour incubation period. After incubation, 75 μl supernatant from each well was collected and the amount of ^51Cr was counted using a TopCount Scintillation Counter. The degree of cell lysis was calculated using the formula below: [formula]
row,Substance,CTL inhibition across different MHC combinations
1,Bt-SGSG-NLRIALRYYW; positions 77–85 terminating with tryptophan (Biotin-SGSGNLRIALRYYW-OH) [peptide 15],greater activity than B2702 monomer; also recorded: non-MHC restricted

# Same assay, conditions: lysis without peptide 42%
row,Substance,percentage lysis in presence of peptide [%]
1,Bt-SGSG-NLRIALRYYW; positions 77–85 terminating with tryptophan (Biotin-SGSGNLRIALRYYW-OH) [peptide 15],7

# Same assay, conditions: result in words
row,Substance,inhibition of CTL activity
1,4: Bt-SGSG-RVNLRTALRY [compound 4],inhibitory activity substantially greater than contol
2,16: Bi-SGSG-LRIALRYYWD [compound 16],inhibitory activity substantially greater than contol
3,19: Bt-SGSG-LRYYWDSEA [compound 19],inhibitory activity substantially greater than contol
4,20: Bt-SGSG-RIALRAAA [compound 20],inhibitory activity substantially greater than contol
5,23: Bt-SGSG-NLRIALRY [compound 23],inhibitory activity substantially greater than contol
6,27: Bt-SGSG-QTDRENLRIA [compound 27],inhibitory activity substantially greater than contol
7,34: Bt-SGSG-REALRIALRY [compound 34],inhibitory activity substantially greater than contol
8,Bt-SGSG-NLRIALRYYW; positions 77–85 terminating with tryptophan (Biotin-SGSGNLRIALRYYW-OH) [peptide 15],inhibited CTL activity; also recorded: highest degree of inhibition
9,peptide 2: Bi-SGSG-RVNLRIALRY (Biotin-SGSGRVNLRIALRY-OH),inhibited CTL activity

# System: B6 hearts in CBA recipients
# Assay: Heterotopic heart transplantation
# Format: in vivo, mouse
# Details: 10 mg/kg/day, day 0 to day 10; untreated MST 7.5+/−1.1; p=0.0007
# Experimental: The in vivo immunosuppressive activity of the peptides was evaluated in heterotopic heart transplantation in the model described by Ono and Lindsey, (J Thorac Cardiovasc Surg 1969, 7:225). CBA recipients of B6 hearts were treated 10 mg/kg/day of p15 from day 0 to day 10 after transplantation. Untreated recipients rejected the allografts between day 6 and 10 (MST=7.5+/−1.1 days). Treatment of recipients with p15 lead to a significant increase of graft survival (MST=14.4+/−1.5 days, p vs control=0.0007; Mann-Whitney Test).
row,Substance,graft survival MST [days]
1,Bt-SGSG-NLRIALRYYW; positions 77–85 terminating with tryptophan (Biotin-SGSGNLRIALRYYW-OH) [peptide 15],14.4 ± 1.5

# System: human peripheral blood lymphocytes
# Assay: Staining of PBLs with biotinylated peptide panel
# Format: binding
# Details: 50 μg/ml biotinylated peptide
# Text: as §1
row,Substance,binding to PBLs
1,Bt-SGSG-NLRIALRYYW; positions 77–85 terminating with tryptophan (Biotin-SGSGNLRIALRYYW-OH) [peptide 15],bound to the PBLs
2,peptide 2: Bi-SGSG-RVNLRIALRY (Biotin-SGSGRVNLRIALRY-OH),bound to the PBLs

# Same assay, conditions: majority of binding on macrophage/polymorphonuclear leukocytes population
row,Substance,binding on resting lymphocytes
1,Bt-SGSG-NLRIALRYYW; positions 77–85 terminating with tryptophan (Biotin-SGSGNLRIALRYYW-OH) [peptide 15],little or no binding on resting lymphocytes
2,peptide 2: Bi-SGSG-RVNLRIALRY (Biotin-SGSGRVNLRIALRY-OH),little or no binding on resting lymphocytes

# System: NK cell activity (killing of YAC-1 cells by CBA spleen cells)
# Assay: NK cell activity (51Cr release)
# Format: cell-based, mouse
# Details: YAC-1 targets, freshly isolated CBA spleen cells
# Experimental: NK Cell Activity. YAC-1, a mouse lymphoma which was induced by inoculation of Moloney leukemia virus into a newborn A/Sn mouse was used as the NK cell target (ATCC TIB 160). Four thousand sodium chromate labeled YAC-1 cells were cultured with different concentrations of freshly isolated CBA spleen cells (effector to target ratios: 62.5:1, 125:1, 250:1, 500:1) in V-shaped bottom plates with RPMI-1640 containing 10% FBS for 4 h at 37° C., 5% CO2. The degree of cell lysis was quantified by the release of ^51Cr into the supernatants. After incubation, plates were centrifuged and 75 μl of supernatant was collected. The degree of cell lysis was measured using a TopCount Scintillation Counter. The degree of cell lysis was calculated using the formula below: [formula]
row,Substance,inhibition of NK cell killing
1,Bt-SGSG-NLRIALRYYW; positions 77–85 terminating with tryptophan (Biotin-SGSGNLRIALRYYW-OH) [peptide 15],able to inhibit the killing of YAC-1

# System: anti-CD3 stimulation of CBA spleen cells
# Assay: Anti-CD3 stimulation ([3H]-TdR incorporation)
# Format: cell-based, mouse
# Details: 5 μg/ml
# Experimental: Anti-CD3 Stimulation and Mixed Lymphocyte Culture. Spleen cells isolated from CBA mice were stimulated (2×10^5/well) with anti-CD3 monoclonal antibody (Pharmingen, San Diego) at a final concentration of 0.1 to 1 μg/ml in 96-well, round-bottom microculture plates (Nunc, Denmark). Peptides at various concentrations were added at the beginning of the culture. Cells were incubated for a period of 3 days at 37° C., 5% CO2. Twenty-four hours before harvesting 1 μCi[^3H]-TdR (Amersham, Arlington Heights, Ill.) was added to individual wells. Cells were then harvested using a Filtermate 196 Harvester (Packard, Downers Grove, Ill.) and the degree of thymidine incorporation was measured using a TopCount Microplate Scintillation Counter (Packard). For MLR, CBA spleen cells were used as responders and B6 spleen cells as stimulators. B6 spleen cells were pre- treated with mitomycin-C (Calbiochem, La Jolla, Calif.) at 0.5 mg/ml for 20 min at 36° C. Cells were then washed three times to remove excess mitomycin-C. CBA spleen cells (2×10^5/well) were cultured with an equal number of mitomycin C-treated B6 cells in serum-free Aim V medium for periods of 3 to 6 days. One microcurie of [^3H]-TdR was added to the culture 24 hour before cell harvesting and the degree of thymidine incorporation was quantified as described above.
row,Substance,inhibition of anti-CD3 stimulation at 5 μg/ml
1,3: Bt-SGSG-RENLRTALRY (Biotin-SGSGRENLRTALRY-OH) [compound 3],substantially less inhibition
2,16: Bi-SGSG-LRIALRYYWD [compound 16],substantially less inhibition
3,17: Bt-SGSG-IALRYYWDS [compound 17],substantially less inhibition
4,27: Bt-SGSG-QTDRENLRIA [compound 27],significant levels of inhibition
5,40: Bt-SGSG-RENLRIALRA [compound 40],substantially less inhibition
6,41: Bt-SGSG-RVDLRTLRGY [compound 41],substantially less inhibition
7,42: Bt-SGSG-RVSLRNLRGY [compound 42],significant levels of inhibition
8,43: Bt-SGSG-RVNLRTLRRY; marked E in the table [compound 43],significant levels of inhibition
9,Bt-SGSG-NLRIALRYYW; positions 77–85 terminating with tryptophan (Biotin-SGSGNLRIALRYYW-OH) [peptide 15],substantially less inhibition
10,Bue-1: 2702 MAP; no sequence printed in the table (SGSGRENLRIALRY; not fully specified; also: MAP construct),substantially less inhibition
11,Bue-3: ENLRIALR,substantially less inhibition
12,Bue-4: ENLRIAL,substantially less inhibition
13,Bue-5: NLRIAL,significant levels of inhibition
14,Woo-2: Bt-SGSG-RENLRIALRY (Biotin-SGSGRENLRIALRY-OH),substantially less inhibition
15,peptide 2: Bi-SGSG-RVNLRIALRY (Biotin-SGSGRVNLRIALRY-OH),substantially less inhibition

# Same assay, conditions: 50 μg/ml
row,Substance,inhibition of anti-CD3 stimulation at 50 μg/ml
1,3: Bt-SGSG-RENLRTALRY (Biotin-SGSGRENLRTALRY-OH) [compound 3],substantially complete inhibition
2,16: Bi-SGSG-LRIALRYYWD [compound 16],substantially complete inhibition
3,17: Bt-SGSG-IALRYYWDS [compound 17],substantially complete inhibition
4,40: Bt-SGSG-RENLRIALRA [compound 40],substantially complete inhibition
5,41: Bt-SGSG-RVDLRTLRGY [compound 41],substantially complete inhibition
6,42: Bt-SGSG-RVSLRNLRGY [compound 42],substantially complete inhibition
7,43: Bt-SGSG-RVNLRTLRRY; marked E in the table [compound 43],substantially complete inhibition
8,Bt-SGSG-NLRIALRYYW; positions 77–85 terminating with tryptophan (Biotin-SGSGNLRIALRYYW-OH) [peptide 15],substantially complete inhibition
9,Bue-1: 2702 MAP; no sequence printed in the table (SGSGRENLRIALRY; not fully specified; also: MAP construct),substantially complete inhibition
10,Bue-3: ENLRIALR,substantially complete inhibition
11,Bue-4: ENLRIAL,substantially complete inhibition
12,Bue-5: NLRIAL,substantially complete inhibition
13,Woo-2: Bt-SGSG-RENLRIALRY (Biotin-SGSGRENLRIALRY-OH),substantially complete inhibition
14,peptide 2: Bi-SGSG-RVNLRIALRY (Biotin-SGSGRVNLRIALRY-OH),substantially complete inhibition

# Same assay, conditions: result in words
row,Substance,inhibition of anti-CD3 stimulation
1,3: Bt-SGSG-RENLRTALRY (Biotin-SGSGRENLRTALRY-OH) [compound 3],inhibit the anti-CD3 stimulation in a dose dependent manner
2,16: Bi-SGSG-LRIALRYYWD [compound 16],inhibit the anti-CD3 stimulation in a dose dependent manner
3,17: Bt-SGSG-IALRYYWDS [compound 17],inhibit the anti-CD3 stimulation in a dose dependent manner
4,40: Bt-SGSG-RENLRIALRA [compound 40],inhibit the anti-CD3 stimulation in a dose dependent manner
5,41: Bt-SGSG-RVDLRTLRGY [compound 41],inhibit the anti-CD3 stimulation in a dose dependent manner
6,42: Bt-SGSG-RVSLRNLRGY [compound 42],inhibit the anti-CD3 stimulation in a dose dependent manner
7,43: Bt-SGSG-RVNLRTLRRY; marked E in the table [compound 43],inhibit the anti-CD3 stimulation in a dose dependent manner
8,Bt-SGSG-NLRIALRYYW; positions 77–85 terminating with tryptophan (Biotin-SGSGNLRIALRYYW-OH) [peptide 15],inhibit the anti-CD3 stimulation in a dose dependent manner
9,Bue-1: 2702 MAP; no sequence printed in the table (SGSGRENLRIALRY; not fully specified; also: MAP construct),inhibit the anti-CD3 stimulation in a dose dependent manner
10,Bue-3: ENLRIALR,inhibit the anti-CD3 stimulation in a dose dependent manner
11,Bue-4: ENLRIAL,inhibit the anti-CD3 stimulation in a dose dependent manner
12,Bue-5: NLRIAL,inhibit the anti-CD3 stimulation in a dose dependent manner
13,Woo-2: Bt-SGSG-RENLRIALRY (Biotin-SGSGRENLRIALRY-OH),inhibit the anti-CD3 stimulation in a dose dependent manner
14,peptide 2: Bi-SGSG-RVNLRIALRY (Biotin-SGSGRVNLRIALRY-OH),inhibit the anti-CD3 stimulation in a dose dependent manner

# From patent US6982246B1, “Cytomodulating peptide for inhibiting lymphocyte activity” (SangStat Medical Corporation, priority 1995, dated 2006)
